Assay results from article PMC10544810 (Food & Function, 2023).

Tests used:
LC-MS [1] = type: in vivo, human; conditions: for plasma concentration (mean ± SD): fasted baseline plasma, 90 volunteers; for concentrations detected in plasma: individual volunteers, ESI Fig. S4
LC-MS [2] = type: in vivo, human; conditions: given as x : 1; plasma versus CSF concentrations
[3] = cited from earlier work

| plasma concentration (mean ± SD) (LC-MS [1]) [µM] | plasma : CSF ratio (LC-MS [2]) | SMILES | further results |
| --- | --- | --- | --- |
|  | 620 | Cn1c(=O)c2[nH]cnc2n(C)c1=O [1,3-Dimethylxanthine, reference compound] |  |
| 0.0053 ± 0.0041 |  | CCOC(=O)c1cc(O)c(O)c(O)c1 [3,4,5-trihydroxybenzene ethyl ester] |  |
|  | 5 | O=c1ccc2ccc(O)c(O)c2o1 [7,8-Dihydroxycoumarin] | concentrations detected in plasma (LC-MS [1]): below 1 μM |
|  | 24 | Oc1cc(O)c2c(c1)O[C@H](c1ccc(O)c(O)c1)[C@H](O)C2 [(−)-Epicatechin] | concentrations detected in plasma (LC-MS [1]): below 1 μM |
| 387 ± 243 |  | O=C(O)CNC(=O)c1ccccc1 [hippuric acid] |  |

Second part, the molecule before the results:

| SMILES | plasma concentration (mean ± SD) (LC-MS [1]) [µM] | plasma : CSF ratio (LC-MS [2]) | further results |
| --- | --- | --- | --- |
| Cn1c(=O)c2c(ncn2C)n(C)c1=O [1,3,7-Trimethylxanthine, reference compound] | 179 ± 118 |  |  |
| O=C(O)c1cccc(O)c1 [3-Hydroxybenzoic acid] |  |  | CSF concentration reported by a previous study [3]: 58.5 nM |
| Cn1c(=O)[nH]c(=O)c2[nH]cnc21 [3-Methylxanthine] | 5.3 ± 3.8 |  |  |
